# Measured values reported in patent publication US20150352022A1, “Cosmetic Compositions and Methods For Inhibiting Melanin Synthesis” (The Procter & Gamble Company, priority 2013, published 2015).
# Test system: B16-F1 mouse melanoma cells
# Assay: Melanin Synthesis Assay
# Assay type: cell-based
# Method: A B16-F1 mouse melanoma cell line may be employed as an assay to measure melanin synthesis. The B16-F1 cells may be obtained from American Tissue Culture Collection, Virginia, USA. The cell culture medium that may be used in the assay may comprise 500 mL of Dulbecco's Modified Eagle's Medium (DMEM), 50 mL Fetal Bovine Serum (FBS), and 5 mL of penicillin-streptomycin liquid. B16-F1 cells that are cultured in this medium and grown to greater than 90% confluency synthesize melanin. While not intending to be bound by any theory, it is hypothesized that melanin synthesis is stimulated by the culture medium and/or stress induced by growth to a high confluency. […] Equipment used in the assay include a CO2 incubator, such as a Forma Series Model 3110 by Therma Scientific, Massachusetts, USA; a hemocytometer, such as a Bright Line model by Hauser Scientific, Pennsylvania, USA; and a UV-Visible Spectrum Plate Reader, such as a SpectraMax250 from Molecular Devices, California, USA. […] Read the 96 well plate using the UV-Vis Plate Reader at 410 nm to optically measure the amount of melanin produced between wells that are treated with [test compound] and control wells that are not treated with a test compound. […] Percentage of melanin synthesis inhibition is calculated by the following equation: [formula] Where OD410 is the Optical Density at 410 nm as measured by the UV-Vis Spectrum Plate Reader. […]
smiles,measurement,setting,value
"CC(C)=CCC[C@](C)(O)[C@@H]1CC=C(C)CC1 [Sample 1, bisabolol]",Average Melanin % Inhibition,"OD 410 nm, Bis 0.1%, HD 0.00056%, UP 0.00011%, Nia 0.00056% where present",2.2%
same,reduction of the production of melanin as compared to Sample 4 (HD/UP/Nia),statistical comparison versus Sample 4,did not significantly reduce
